The source of these data is ChEMBL document CHEMBL1148014, “Antileukotrienic N-arylethyl-2-arylacetamides in the treatment of ulcerative colitis” (Eur J Med Chem, 2007).

A word on the logP: it is a log measure of how a compound divides between an organic and an aqueous phase. A lower logP goes with a more hydrophilic compound. One may read the IC50 as the point on the concentration scale where inhibition reaches its midpoint. The low end stands for inhibition by little substance, the high end for a need for much substance.

SMILES strings stand for the structures. Active and inactive are the calls of the source. No cut-off for these calls is given here.

For data set [1], the species on record is Mus musculus. The data set can be described thus: animal or person. The note with it: po, read-out: Inhibition.
The conditions of data set [2]: octanol/water.
Description: Lipophilicity, log K of the compound
The species named for a further data set is Rattus norvegicus. The data set can be described thus: animal or person. The note with it: read-out: Inhibition.
The next data set in a line: physchem. The note with it: octanol/water.
In another data set the target is Leukotriene B4 receptor (Homo sapiens, UniProt Q9NPC1+Q15722).
The species named for data set [3] is Mus musculus. The data set can be described thus: animal or person. The conditions noted are these: po, read-out: Inhibition. The source holds these as a separate data set.
Data set [4] is filed under the species Mus musculus. The data set can be described thus: Antiinflammatory activity against dextran sodium sulfate-induced ulcerative colitis in BALB/c mouse assessed as large intestinal bleeding. In kind it is functional, organism-based.
For data set [5], the species on record is Mus musculus. Kind of data set: Antiinflammatory activity against dextran sodium sulfate-induced ulcerative colitis in BALB/c mouse assessed as stool consistency. The format is functional, organism-based.
Data set [6] deals with Mus musculus. The data set can be described thus: Stimulation of hyperaemia in mouse at 200 mg/kg, po. In kind it is functional.

Description for Leukotriene B4 receptor: Displacement of [3H]LTB4 from LTB4 receptor in guinea pig spleen membrane
Description for physchem: Partition coefficient, log P of the compound

`Cc1cccc(CCN(C)C(=O)Cc2ccc(OCCCCOc3ccc(CC(=O)O)cc3)cc2)c1`: in the data set listed under Mus musculus [1], the inhibition in vivo at 200 mg/kg stood at 44%. Besides, the “log K” value in data set [2] was found to be 0.47. Besides, the inhibition in vivo at 100 mg/kg in the data set filed under Rattus norvegicus is 14%. In “physchem”, this compound gave a logP of 6.2. For the same compound, on Leukotriene B4 receptor, the IC50 was determined as 1100 nM.
Regarding `CC(c1cc2ccccc2s1)N(O)C(N)=O` (stereo not given) [ZILEUTON], the inhibition in vivo at 200 mg/kg in the data set filed under Mus musculus [3] was found to be 13%. Also, the inhibition in vivo at 100 mg/kg in the data set filed under Rattus norvegicus was 46%.
On to `COc1cc(CC(=O)O)ccc1OCCCCOc1ccc(CC(=O)N(C)CCc2ccccc2)cc1`, for which the inhibition in vivo at 200 mg/kg in the data set filed under Mus musculus [1] came to 21%. Also, the “log K” value in [2] came to 0.12. Also, the inhibition in vivo at 100 mg/kg in the data set filed under Rattus norvegicus was determined as 0%. Also, the logP in “physchem” amounted to 5.22. At Leukotriene B4 receptor, the IC50 worked out at 8600 nM.
For the compound `CN(CCc1ccccc1)C(=O)Cc1ccc(OCCCCOc2ccc(CC(=O)O)cc2)cc1`, in the data set filed under Mus musculus [1], the inhibition in vivo at 200 mg/kg was 45%. For the same compound, in data set [2], the “log K” value stood at 0.287. The inhibition in vivo at 100 mg/kg in the data set listed under Rattus norvegicus was 30%. The compound further had a logP in the data set “physchem” of 5.65. Also, the IC50 against Leukotriene B4 receptor came to 4700 nM.
As to `CN(CCc1ccccc1)C(=O)Cc1ccc(OCCCCOc2ccc(CC(=O)O)cc2Cl)cc1`, the inhibition in vivo at 200 mg/kg in the data set filed under Mus musculus [1] was determined as 23%. Further, the “log K” value in [2] turned out to be 0.364. In addition, the outcome in the data set listed under Mus musculus [4] and in the data set filed under Mus musculus [5] was inactive. Moreover, in the data set listed under Rattus norvegicus, the inhibition in vivo at 100 mg/kg stood at 32%. Besides, in the data set “physchem”, the logP was 6.3. The compound also showed an IC50 against Leukotriene B4 receptor of 1200 nM.
For `O=C(O)Cc1ccc(OCCCCOc2ccc(CC(=O)NCCc3ccccc3)cc2)cc1`, in the data set listed under Mus musculus [1], the inhibition in vivo at 200 mg/kg was 23%. The “log K” value in [2] stood at 0.089. This compound also had a logP in “physchem” of 5.44.
Regarding `COc1cc(CC(=O)O)ccc1OCCCCOc1ccc(CC(=O)NCCc2ccccc2)cc1`, the inhibition in vivo at 200 mg/kg in the data set listed under Mus musculus [1] came out at 23%. Also, the “log K” value in [2] is given as -0.079. In addition, the Activity in the data set on Mus musculus [6] turned out to be 7.7%. This compound also showed a logP in “physchem” of 5.01.
As for `COc1cc(CC(=O)O)ccc1OCCCCOc1ccc(CC(=O)N(C)CCc2ccc(Br)cc2)cc1`, in the data set filed under Mus musculus [1], the inhibition in vivo at 200 mg/kg came to 38%. For the same compound, the “log K” value in data set [2] is 0.354. Moreover, the outcome in the data set filed under Mus musculus [4] and in the data set listed under Mus musculus [5] was Active. Moreover, the inhibition in vivo at 100 mg/kg in the data set filed under Rattus norvegicus was 27%. In the data set “physchem”, this compound gave a logP of 6.11. Further, at Leukotriene B4 receptor, the IC50 is 1900 nM.
With `COc1cc(CC(=O)O)ccc1OCCCOc1ccc(CC(=O)N(C)CCc2ccc(Br)cc2)cc1`, in the data set filed under Mus musculus [1], the inhibition in vivo at 200 mg/kg amounted to 38%. Besides, the “log K” value in [2] worked out at 0.193. In addition, the inhibition in vivo at 100 mg/kg in the data set listed under Rattus norvegicus amounted to 3%. The same compound had a logP in “physchem” of 5.62.
`CN(CCc1ccccc1)C(=O)Cc1ccc(OCCCOc2ccc(CC(=O)O)cc2)cc1`: the inhibition in vivo at 200 mg/kg in the data set filed under Mus musculus [1] amounted to 20%. Also, the “log K” value in data set [2] was 0.166. Also, the inhibition in vivo at 100 mg/kg in the data set filed under Rattus norvegicus worked out at 39%. The compound further gave a logP in the data set “physchem” of 5.16. Moreover, the IC50 on Leukotriene B4 receptor is 18000 nM.
On to `CN(CCc1ccccc1)C(=O)Cc1ccc(OCCCOc2ccc(CC(=O)O)cc2Cl)cc1`, for which the inhibition in vivo at 200 mg/kg in the data set filed under Mus musculus [1] stood at 20%. The “log K” value in data set [2] worked out at 0.253. Further, the inhibition in vivo at 100 mg/kg in the data set listed under Rattus norvegicus came out at 12%. In the data set “physchem”, this compound showed a logP of 5.81. For the same compound, the IC50 on Leukotriene B4 receptor was 2400 nM.
As to `Cc1ccc(CCN(C)C(=O)Cc2ccc(OCCCCOc3ccc(CC(=O)O)cc3)cc2)cc1`, in the data set filed under Mus musculus [1], the inhibition in vivo at 200 mg/kg was 20%. Also, the “log K” value in data set [2] is on record as 0.471. The logP in “physchem” turned out to be 6.2. This compound also returned an IC50 against Leukotriene B4 receptor of 660 nM.
With `COc1cc(CC(=O)O)ccc1OCCCOc1ccc(CC(=O)N(C)CCc2ccccc2)cc1`, the inhibition in vivo at 200 mg/kg in the data set listed under Mus musculus [1] was 14%. Also, the “log K” value in data set [2] is listed as 0.013. For the same compound, the log partition coefficient (logP) in “physchem” was found to be 4.73. On Leukotriene B4 receptor, this compound showed an IC50 of 67000 nM.
